Experimental data from PMC6743424, “Phenolic acid phenethylesters and their corresponding ketones: Inhibition of 5‐lipoxygenase and stability in human blood and HepaRG cells” (Pharmacology Research & Perspectives, 2019).

Experiments:
Type in all cases: in vitro ADME, human
[1] = test system: HepaRG cells; test: Residual inhibition of 5‐LO product biosynthesis in blood after incubation with HepaRG cells; settings: for Inhibitory activity against 5‐LO product biosynthesis after incubation with HepaRG cells: 50 µmol/L with HepaRG cells, after 60 minutes, medium added to blood, zymosan, LTB4
Experimental: (§1) Differentiated HepaRG cells, plated in 24 well plates, were washed with hepatocyte suspension medium (Williams E‐medium without phenol red, supplemented with 2 mmol/L Glutamax and […] HEPES) before addition of hepatocyte suspension medium (250 µL/well) containing (30 or 50 µmol/L) of the test compounds or their diluent. Cells were then incubated for 7.5, 15, 30, 60 or 90 minutes at 37°C after which the medium was removed.
In experiments where the inhibitory capacity of test compounds was to be determined after incubation with HepaRG cells, 125 µL of the hepatocyte suspension medium containing test compounds that had been collected at different time points from HepaRG cultures was added to 1 mL of heparinized blood. After a 5 minutes of preincubation, blood was then stimulated with opsonized zymosan and processed for HPLC analysis of 5‐LO metabolites as described above.
Figure 6 Stability of the test compounds for the inhibition of the biosynthesis of 5‐LO products following incubation with HepaRG cells. HepaRG cells were incubated with […] of hepatocyte suspension medium containing 50 µmol/L of test compounds for the indicated times at 37°C. Hepatocyte suspension medium (125 µL) was then removed and added to 1 mL of blood that was then incubated for 5 minutes and then stimulated with opsonized zymosan (4 mg/mL) for 30 minutes at 37°C. Blood was then centrifuged and plasma was collected and added to 1.2 mL of CH3OH:CH3CN (1:1). Samples were processed for analysis using RP‐HPLC for LTB4 quantification. Data are expressed as means ± SEM of at least three independent experiments. *Difference from time = 0, as determined using One‐way ANOVA with Dunnett's multiple comparison test (P < .05)

[2] = Stability of inhibitory activity after incubation in whole blood; settings: 3 μmol/L in whole blood up to 240 minutes before zymosan; LTB4
Experimental: Figure 4 Stability of the test compounds for the inhibition of the biosynthesis of 5‐LO products following incubation in plasma or in whole blood. (A) Test compounds were incubated (30 µmol/L) in human plasma for the indicated times at 37°C. Plasma (50 µL) containing the test compounds was then added to 450 µL of PMNL (10^7 cells/mL) which were then stimulated with 1 μmol/L of thapsigargin for 15 minutes at 37°C. The stimulation was then stopped, samples were processed, and 5‐LO products were measured using RP‐HPLC. (B) Whole blood was incubated in the presence of 3 μmol/L of test compounds or with their diluent (control, DMSO 0.1%) for the indicated times and was then stimulated with opsonized zymosan (4 mg/mL) for 30 minutes at 37°C. Blood was then centrifuged and plasma was collected and added to 1.2 mL of CH3OH:CH3CN (1:1). Samples were processed for analysis using RP‐HPLC for LTB4 quantification. All data are expressed as means ± SEM of at least three independent experiments. *Difference from time = 0, as determined using One‐way ANOVA with Dunnett's multiple comparison test (P < .05)

[3] = test system: HepaRG cells; test: Metabolite identification by LC‐MS/MS in HepaRG cell culture; settings: 50 µmol/L, 7.5 and 60 minutes
Experimental: as §1
In other experiments, LC‐MS/MS analysis was performed to identify metabolites of test compounds that had been incubated with HepaRG cells. First, fifty micromolar standards of the test compounds were diluted 3000‐fold and analyzed using electrospray ionization mass spectrometry on a linear quadrupole ion trap (LTQ‐XL) from Thermo‐Fisher Scientific (San Jose). Full scan spectra were collected using both ionization polarities for confirmation of the intact molecular weight of each compounds based on the expected [M + H]^+ and [M−H]^− pseudo‐molecular ions observed using mass spectrometry. The diluted standards were then subjected to reversed‐phase partition chromatography on an Altima C18 column produced by HiChrom and distributed by VWR (Mississsauga, ON). The LC system was a Dionex Ultimate 3000. The mass spectrometer electrospray source was used at 40 µL/min with a nitrogen sheath gas of 15, a spray voltage of ±4 kV, a capillary voltage of ±35 V, a tube lens of ±175 V and a capillary temperature of 160°C. Samples that had been collected from HepaRG cultures were purified on C18 cartridges and eluted with CH3OH. For the first injection of extracted samples, the MS method consisted of a repeated loop of full scan (m/z 100‐800), product ion scan based on the intact mass determined from infusion of the standards and one product ion scan. […]
Figure 7 Metabolite identification using negative ion LC‐MS/MS in HepaRG cell culture. […] Right panels show the MS and MS/MS of the generated metabolites detected at 60 minutes. […]

SMILES: O=C(/C=C/c1ccc(O)c(O)c1)OCCc1ccccc1 [CAPE (2), caffeic acid phenethyl ester, reference compound]
- Inhibitory activity against 5‐LO product biosynthesis after incubation with HepaRG cells [1]: lost all their inhibitory activity
- Stability of inhibitory activity after incubation in whole blood [2]: complete loss of inhibitory activity after 240 minutes

SMILES: O=C(/C=C/c1cc(O)ccc1O)OCCc1ccccc1 [compound 5]
- Inhibitory activity against 5‐LO product biosynthesis after incubation with HepaRG cells [1]: lost all their inhibitory activity

SMILES: O=C(/C=C/c1ccc(O)c(O)c1)CCCc1ccccc1 [compound 7]
- Metabolites formed in HepaRG cell culture [3]: α,β‐unsaturated ketone reduction
- Inhibitory activity against 5‐LO product biosynthesis after incubation with HepaRG cells [1]: lost all their inhibitory activity
- Stability of inhibitory activity after incubation in whole blood [2]: complete loss of inhibitory activity after 240 minutes

SMILES: O=C(/C=C/c1cc(O)ccc1O)CCc1ccccc1 [compound 8]
- Metabolites formed in HepaRG cell culture [3]: α,β‐unsaturated ketone reduction
- Inhibitory activity against 5‐LO product biosynthesis after incubation with HepaRG cells [1]: lost all their inhibitory activity

SMILES: COc1cc(/C=C/C(=O)CCc2ccccc2)cc(OC)c1O [compound 10, sinapic acid phenethyl ketone]
- Metabolites formed in HepaRG cell culture [3]: α,β‐unsaturated ketone reduction
- Inhibitory activity against 5‐LO product biosynthesis after incubation with HepaRG cells [1]: maintained significant inhibition
- Inhibitory activity retained after incubation in HepaRG cultures ([1]; after up to one hour of incubation): 50%
- Stability of inhibitory activity after incubation in whole blood [2]: near complete retention of inhibitory activity
